This is an account of results in PMC3238500 (Archives of biochemistry and biophysics, 2011).

For test [1], the target named is T1, pyruvate carboxylase (RePC) (Rhizobium etli, UniProt Q2K340). In kind it is biochemical.
Test [2] concerns the target T1, pyruvate carboxylase (RePC). The class given is biochemical. The source holds these as a separate data set.
Test [3] has the same target. The class given is binding.
Test [4] has the same target. As to the kind of experiment: Stopped-flow fluorescence kinetics of MgTNP-ATP binding to pyruvate carboxylase. As to conditions: for kobs1 (fast phase of binding) / kobs2 (intermediate phase of binding): 0.5 μM enzyme, double exponential fit; for k-2 / K2 (equilibrium constant between two conformational states, k-2/k2) / k2: intermediate phase.

Read-outs that look alike come from different tables or passages of the source.

In general, Km refers to the concentration of substrate that gives half-maximal velocity. Broadly, the Hill coefficient is a measure of the steepness of the concentration-response curve. For `Nc1ncnc2c1ncn2[C@@H]1O[C@H](COP(=O)(O)OP(=O)([O-])OP(=O)([O-])O)[C@@H](O)[C@H]1O.[Mg+2]` [MgATP], in test [1] (MgATP varied, absence of acetyl CoA, fit to equation (iii), Fig. 6a), the Km worked out at 150 ± 20 µM. Moreover, the Ki in test [1] (read-out: Ki (substrate inhibition), MgATP varied, absence of acetyl CoA, fit to equation (iii), Fig. 6a) came out at 8.9 ± 1.2 mM. Moreover, the Hill coefficient in test [2] (activation by MgATP, absence of acetyl CoA, Fig. 6b) is given as 3.1 ± 0.5. For the same molecule, in test [2] (between 2 mM and saturating MgATP, absence of acetyl CoA), the increase in activity result is recorded as “approximately 16 fold”. Further, the “apparent Ka (activation of ATP cleavage)” value in test [2] (super-catalytic MgATP, absence of acetyl CoA, fit to equation (iv), Fig. 6b) is given as 5.0 ± 0.4 mM. In addition, in test [3] (addition of 2.5 mM MgATP to 5 μM MgTNP-ATP + 10 μM enzyme + 0.25 mM acetyl CoA), the “further decrease in fluorescence” value is “approximately 13%”. In addition, in test [4] (1 mM MgATP in both syringes, 10 μM MgTNP-ATP), the “effect on kinetics of MgTNP-ATP binding” value is “essentially identical”.
Take `Nc1ncnc2c1ncn2[C@@H]1O[C@H](COP(=O)(O)OP(=O)(O)OP(=O)(O)O)[C@H]2OC3(O[C@H]21)C([N+](=O)[O-])=CC(=[N+]([O-])[O-])C=C3[N+](=O)[O-]` (stereo partly drawn) [MgTNP-ATP, 2′,3′-O-(2,4,6-trinitrophenyl) adenosine 5′-triphosphate]: the “kcat2 for the activation by MgTNP-ATP” value in test [1] (absence of acetyl CoA, fit to equation (i), Fig. 4c) worked out at 1.9 ± 0.1 s⁻¹. In addition, the “nt (Hill coefficient)” value in test [1] (activation by MgTNP-ATP in the absence of acetyl CoA, fit to equation (i), Fig. 4c) is 2.3 ± 0.6; in test [1] (activation by MgTNP-ATP, global fit to equation (ii), Fig. 4b) it was 2.5 ± 0.4. The “substrate in the overall pyruvate carboxylation reaction” value in test [1] (concentrations up to 0.25 mM) is recorded as “not found to be a substrate”. Further, the “kcat2 for the reaction activated by MgTNP-ATP” value in test [1] (global fit to equation (ii), Fig. 4b) was determined as 2.0 ± 0.5 s⁻¹. In addition, the “half time of the slowest phase of the binding kinetics” value in test [4] was “about 20 sec”. Moreover, the “kobs1 (fast phase of binding)” value in test [4] (10 μM MgTNP-ATP, Fig. 8a) was 234 ± 26 s⁻¹; in test [4] (35 μM MgTNP-ATP, Fig. 8b) it was 475 ± 90 s⁻¹. Also, the “kobs2 (intermediate phase of binding)” value turned out to be 11 ± 1 s⁻¹ in test [4] (10 μM MgTNP-ATP, Fig. 8a) and 19 ± 2 s⁻¹ in test [4] (35 μM MgTNP-ATP, Fig. 8b). Further, the “k (slow phase of binding)” value in test [4] (20 μM MgTNP-ATP, single exponential fit, Fig. 8c) came to 0.035 ± 0.001 s⁻¹. Moreover, in test [4] (average value across all concentrations of MgTNP-ATP), the “observed first order rate constant, slow phase of binding” value was 0.035 ± 0.008 s⁻¹. In test [4] (fast phase, fit to eq (vi)), the k1 was 0.20 ± 0.01 μM^-2s^-1. Also, the “k2 (intermediate phase) as percentage of k1 (fast phase)” value in test [4] (fit to equation (ix)) was 5.9%. Moreover, the “k-2 (intermediate phase) as percentage of k-1 (fast phase)” value in test [4] (fit to equation (ix)) amounted to 6.6%. Besides, the k-2 in test [4] (fit to eq (ix)) was determined as 10.6 ± 0.2 s⁻¹; in test [4] (fit to eq (vii)), 0.6 ± 0.6 s⁻¹; in test [4] (fit to eq (viii)) it was 10.5 ± 0.2 s⁻¹; in test [4] (fit to eq (x)), 12.6 ± 0.2 s⁻¹; in test [4] (fit to eq (xi)) it was 12.7 ± 0.2 s⁻¹; in test [4] (fit to eq (xii)), 13.5 ± 0.3 s⁻¹. The “K2 (equilibrium constant between two conformational states, k-2/k2)” value in test [4] (fit to eq (vii)) came out at 0.02 ± 0.02; in test [4] (fit to eq (viii)) it was 0.47 ± 0.05. The k2 in test [4] (fit to eq (vii)) amounted to 31 ± 1 s⁻¹; in test [4] (fit to eq (viii)) it was 22.6 ± 0.7 s⁻¹; in test [4] (fit to eq (xi)) it was 0.013 ± 0.001μM^-2s^-1; in test [4] (fit to eq (xii)), 0.016 ± 0.001 μM^-2 s^-1.
As to `CC(=O)SCCNC(=O)CCNC(=O)[C@H](O)C(C)(C)COP(=O)(O)OP(=O)(O)OC[C@H]1O[C@@H](n2cnc3c(N)ncnc32)[C@H](O)[C@@H]1OP(=O)(O)O` [acetyl CoA], the “n (Hill coefficient)” value in test [1] (activation by acetyl CoA, fit to equation (i), Fig. 4a) was 2.6 ± 0.2. Further, in test [1] (activation by acetyl CoA, fit to equation (i), Fig. 4a, 30°C, pH 7.8), the “Ka (activation constant)” value was found to be 6.9 ± 0.2 µM. The kcat2 in test [1] (saturating acetyl CoA, fit to equation (i), Fig. 4a) stood at 20.2 ± 0.1 s⁻¹. Besides, the “increase in the turnover number for ATP cleavage” value in test [2] (induced by acetyl CoA when MgATP is present up to 1 mM (data not shown)) is reported as 7 fold. Further, the “decrease in maximum fluorescence intensity” value in test [3] (addition of 0.25 mM acetyl CoA to 5 μM MgTNP-ATP + 10 μM enzyme) is “approximately 32%”.
